Measured values: patent US9303012B2, “Pyridine-2-amides useful as CB2 agonists” (Hoffmann-La Roche Inc., priority 2012, dated 2016)

Experiments:
human CB2 receptors = human CB2 receptors (Homo sapiens (Human), UniProt P34972); assay: functional cAMP assay, CHO cells expressing human CB2 receptors; type: cell-based
Procedure: (§1) CHO cells expressing human CB1 or CB2 receptors are seeded 17-24 hours prior to the experiment 50.000 cells per well in a black 96 well plate with flat clear bottom (Corning Costar #3904) in DMEM (Invitrogen No. 31331), 1×HT supplement, with 10% fetal calf serum and incubated at 5% CO2 and 37° C. in a humidified incubator. The growth medium was exchanged with Krebs Ringer Bicarbonate buffer with 1 mM IBMX and incubated at 30° C. for 30 min. Compounds were added to a final assay volume of 100 μl and incubated for 30 min at 30° C. Using the cAMP-Nano-TRF detection kit the assay (Roche Diagnostics) was stopped by the addition of 50 μl lysis reagent (Tris, NaCl, 1.5% Triton X100, 2.5% NP40, 10% NaN3) and 50 μl detection solutions (20 μM mAb Alexa700-cAMP 1:1, and 48 μM Ruthenium-2-AHA-cAMP) and shaken for 2 h at room temperature. The time-resolved energy transfer is measured by a TRF reader (Evotec Technologies GmbH), equipped with a ND:YAG laser as excitation source. The plate is measured twice with the excitation at 355 nm and at the emission with a delay of 100 ns and a gate of 100 ns, total exposure time 10 s at 730 (bandwidth 30 nm) or 645 nm (bandwidth 75 nm), respectively. The FRET signal is calculated as follows: FRET=T730-Alexa730-P(T645-B645) with P=Ru730-B730/Ru645-B645, where T730 is the test well measured at 730 nM, T645 is the test well measured at 645 nm, B730 and B645 are the buffer controls at 730 nm and 645 nm, respectively. cAMP content is determined from the function of a standard curve spanning from 10 μM to 0.13 nM cAMP.
(§2) EC50 values were determined using Activity Base analysis (ID Business Solution, Limited). The EC50 values for a wide range of cannabinoid agonists generated from this assay were in agreement with the values published in the scientific literature.

human CB1 receptors = human CB1 receptors (Homo sapiens (Human), UniProt P21554); assay: functional cAMP assay, CHO cells expressing human CB1 receptors; type: cell-based
human CB1 receptors, sequence (P21554 whole entry): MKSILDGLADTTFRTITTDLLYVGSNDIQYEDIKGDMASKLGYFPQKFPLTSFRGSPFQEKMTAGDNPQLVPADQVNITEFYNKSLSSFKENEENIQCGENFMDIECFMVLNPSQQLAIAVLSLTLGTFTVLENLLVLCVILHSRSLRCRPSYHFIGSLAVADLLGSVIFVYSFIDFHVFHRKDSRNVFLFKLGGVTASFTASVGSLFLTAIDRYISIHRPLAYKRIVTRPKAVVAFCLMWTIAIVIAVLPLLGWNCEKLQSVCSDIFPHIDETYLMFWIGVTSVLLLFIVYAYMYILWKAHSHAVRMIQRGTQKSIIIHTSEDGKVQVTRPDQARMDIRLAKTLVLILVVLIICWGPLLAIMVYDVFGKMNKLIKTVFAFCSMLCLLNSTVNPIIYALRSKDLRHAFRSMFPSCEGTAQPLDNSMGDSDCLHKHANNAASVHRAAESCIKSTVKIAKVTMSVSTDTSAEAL
Procedure: as §1, §2

human CB2 receptors, sequence (P34972 whole entry): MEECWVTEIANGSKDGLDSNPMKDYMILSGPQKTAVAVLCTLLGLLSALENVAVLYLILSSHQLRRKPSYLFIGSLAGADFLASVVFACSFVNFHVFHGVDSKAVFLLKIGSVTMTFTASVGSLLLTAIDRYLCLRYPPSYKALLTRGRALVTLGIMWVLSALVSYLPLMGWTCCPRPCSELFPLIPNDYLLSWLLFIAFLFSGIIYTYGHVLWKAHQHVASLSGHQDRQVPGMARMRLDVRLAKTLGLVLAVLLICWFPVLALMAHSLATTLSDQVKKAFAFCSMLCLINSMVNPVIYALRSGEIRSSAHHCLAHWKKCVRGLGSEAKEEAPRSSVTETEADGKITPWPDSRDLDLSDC

Row | Structure (SMILES) | EC50 (human CB2 receptors) [nM] | EC50 (human CB1 receptors) [nM]
1 | NC(=O)[C@@H]1C[S@+]([O-])CN1C(=O)c1ccc(C2CC2)c(OCC2CC2)n1 (single isomer, unassigned) [Example 116, (1S,4R)-3-(5-Cyclopropyl-6-cyclopropylmethoxy-pyridine-2-carbonyl)-1-oxo-1λ^4-thiazolidine-4-carboxylic acid amide or (1R,4S)-3-(5-cyclopropyl-6-cyclopropylmethoxy-pyridine-2-carbonyl)-1-oxo-1λ^4-thiazolidine-4-carboxylic acid amide] | 672 | > 10000
2 | CN(C(=O)c1ccc(N2CC(F)(F)C2)c(OCC2CC2)n1)C(C)(C)C [Example 1, 6-Cyclopropylmethoxy-5-(3,3-difluoro-azetidin-1-yl)-pyridine-2-carboxylic acid tert-butyl-methyl-amide] | 4.6 | > 10000
3 | CN(C)C(=O)c1ccc(N2CC(F)(F)C2)c(OCC2CC2)n1 [Example 2, 6-Cyclopropylmethoxy-5-(3,3-difluoro-azetidin-1-yl)-pyridine-2-carboxylic acid dimethylamide] | 297 | > 10000
4 | CN(C(=O)c1ccc(C2CC2)c(OCC2CC2)n1)C(C)(C)C [Example 3, 5-Cyclopropyl-6-cyclopropylmethoxy-pyridine-2-carboxylic acid tert-butyl-methyl-amide] | 7.2 | > 10000
5 | CN(C(=O)c1ccc(C2CC2)c(OCC2CCCO2)n1)C(C)(C)C (stereo not drawn) [Example 4, 5-Cyclopropyl-6-(tetrahydro-furan-2-ylmethoxy)-pyridine-2-carboxylic acid tert-butyl-methyl-amide] | 8.5 | > 10000
6 | CN(C(=O)c1ccc(C2CC2)c(Cc2ccc(F)cc2)n1)C(C)(C)C [Example 5, 5-Cyclopropyl-6-(4-fluoro-benzyl)-pyridine-2-carboxylic acid tert-butyl-methyl-amide] | 0.8 | 268
7 | CC(C)CS(=O)(=O)c1nc(C(=O)N(C)C(C)(C)C)ccc1C1CC1 [Example 6, 5-Cyclopropyl-6-(2-methyl-propane-1-sulfonyl)-pyridine-2-carboxylic acid tert-butyl-methyl-amide] | 106 | > 10000
8 | CCN(C(=O)c1ccc(N2CC(F)(F)C2)c(OCC2CC2)n1)C(C)(C)C [Example 7, 6-Cyclopropylmethoxy-5-(3,3-difluoro-azetidin-1-yl)-pyridine-2-carboxylic acid tert-butyl-ethyl-amide] | 0.6 | 292
9 | COCC(C)(C)N(C)C(=O)c1ccc(N2CC(F)(F)C2)c(OCC2CC2)n1 [Example 9, 6-Cyclopropylmethoxy-5-(3,3-difluoro-azetidin-1-yl)-pyridine-2-carboxylic acid (2-methoxy-1,1-dimethyl-ethyl)-methyl-amide] | 3.8 | > 10000
10 | O=C(c1ccc(N2CC(F)(F)C2)c(OCC2CC2)n1)N1CCC12COC2 [Example 10, [6-Cyclopropylmethoxy-5-(3,3-difluoro-azetidin-1-yl)-pyridin-2-yl]-(6-oxa-1-aza-spiro[3.3]hept-1-yl)-methanone] | 662 | > 10000
11 | O=C(c1ccc(N2CC(F)(F)C2)c(OCC2CC2)n1)N1CC2(COC2)C1 [Example 11, [6-Cyclopropylmethoxy-5-(3,3-difluoro-azetidin-1-yl)-pyridin-2-yl]-(2-oxa-6-aza-spiro[3.3]hept-6-yl)-methanone] | 364 | > 10000
12 | CN(C(=O)c1ccc(N2CC(F)(F)C2)c(OCC2CC2)n1)C(C)(C)COC(=O)c1ccc(N2CC(F)(F)C2)c(OCC2CC2)n1 [Example 12, 6-Cyclopropylmethoxy-5-(3,3-difluoro-azetidin-1-yl)-pyridine-2-carboxylic acid 2-{[6-cyclopropylmethoxy-5-(3,3-difluoro-azetidin-1-yl)-pyridine-2-carbonyl]-methyl-amino}-2-methyl-propyl ester] | 134 | > 10000
13 | CC(Oc1nc(C(=O)N(C)C(C)(C)C)ccc1C1CC1)C(F)(F)F (stereo not drawn) [Example 13, 5-Cyclopropyl-6-(2,2,2-trifluoro-1-methyl-ethoxy)-pyridine-2-carboxylic acid tert-butyl-methyl-amide] | 119 | > 10000
14 | CC1(C)COCN1C(=O)c1ccc(N2CC(F)(F)C2)c(OCC2CC2)n1 [Example 14, [6-Cyclopropylmethoxy-5-(3,3-difluoro-azetidin-1-yl)-pyridin-2-yl]-(4,4-dimethyl-oxazolidin-3-yl)-methanone] | 7.3 | > 10000
15 | CN(C(=O)c1ccc(C(F)(F)F)c(OCC2CCCO2)n1)C(C)(C)C (stereo not drawn) [Example 15, 6-(Tetrahydro-furan-2-ylmethoxy)-5-trifluoromethyl-pyridine-2-carboxylic acid tert-butyl-methyl-amide] | 249 | > 10000
16 | CN(C(=O)c1ccc(N2CC(F)(F)C2)c(OCC2CC2)n1)C1(C(F)(F)F)CC1 [Example 16, 6-Cyclopropylmethoxy-5-(3,3-difluoro-azetidin-1-yl)-pyridine-2-carboxylic acid methyl-(1-trifluoromethyl-cyclopropyl)-amide] | 8 | > 10000
17 | CC1(C)COCCN1C(=O)c1ccc(N2CC(F)(F)C2)c(OCC2CC2)n1 [Example 17, [6-Cyclopropylmethoxy-5-(3,3-difluoro-azetidin-1-yl)-pyridin-2-yl]-(3,3-dimethyl-morpholin-4-yl)-methanone] | 5.2 | > 10000
18 | CC1(C)CCCN1C(=O)c1ccc(N2CC(F)(F)C2)c(OCC2CC2)n1 [Example 18, [6-Cyclopropylmethoxy-5-(3,3-difluoro-azetidin-1-yl)-pyridin-2-yl]-(2,2-dimethyl-pyrrolidin-1-yl)-methanone] | 0.6 | > 10000
19 | COCCN(C(=O)c1ccc(N2CC(F)(F)C2)c(OCC2CC2)n1)C(C)(C)CO [Example 19, 6-Cyclopropylmethoxy-5-(3,3-difluoro-azetidin-1-yl)-pyridine-2-carboxylic acid (2-hydroxy-1,1-dimethyl-ethyl)-(2-methoxy-ethyl)-amide] | 856 | > 10000
20 | COCCN(C(=O)c1ccc(N2CC(F)(F)C2)c(OCC2CC2)n1)C(C)(C)C [Example 20, 6-Cyclopropylmethoxy-5-(3,3-difluoro-azetidin-1-yl)-pyridine-2-carboxylic acid tert-butyl-(2-methoxy-ethyl)-amide] | 5.3 | > 10000
21 | CCN(C(=O)c1ccc(N2CC(F)(F)C2)c(OCC2CC2)n1)C1(C(F)(F)F)CC1 [Example 21, 6-Cyclopropylmethoxy-5-(3,3-difluoro-azetidin-1-yl)-pyridine-2-carboxylic acid ethyl-(1-trifluoromethyl-cyclopropyl)-amide] | 2.8 | > 10000
22 | O=C(c1ccc(N2CC(F)(F)C2)c(OCC2CC2)n1)N(Cc1ccccc1)C1(C(F)(F)F)CC1 [Example 22, 6-Cyclopropylmethoxy-5-(3,3-difluoro-azetidin-1-yl)-pyridine-2-carboxylic acid benzyl-(1-trifluoromethyl-cyclopropyl)-amide] | 25 | > 10000
23 | CCOC(=O)CN(C(=O)c1ccc(N2CC(F)(F)C2)c(OCC2CC2)n1)C(C)(C)C [Example 23, {tert-Butyl-[6-cyclopropylmethoxy-5-(3,3-difluoro-azetidin-1-yl)-pyridine-2-carbonyl]-amino}-acetic acid ethyl ester] | 5.8 | > 10000
24 | CC(C)(C)N(CC(=O)O)C(=O)c1ccc(N2CC(F)(F)C2)c(OCC2CC2)n1 [Example 24, {tert-Butyl-[6-cyclopropylmethoxy-5-(3,3-difluoro-azetidin-1-yl)-pyridine-2-carbonyl]-amino}-acetic acid] | 340 | > 10000
25 | CC(C)(C)N(Cc1ccccc1)C(=O)c1ccc(N2CC(F)(F)C2)c(OCC2CC2)n1 [Example 25, 6-Cyclopropylmethoxy-5-(3,3-difluoro-azetidin-1-yl)-pyridine-2-carboxylic acid benzyl-tert-butyl-amide] | 37 | > 10000
26 | CNC(=O)CN(C(=O)c1ccc(N2CC(F)(F)C2)c(OCC2CC2)n1)C(C)(C)C [Example 26, 6-Cyclopropylmethoxy-5-(3,3-difluoro-azetidin-1-yl)-pyridine-2-carboxylic acid tert-butyl-methylcarbamoylmethyl-amide] | 306 | > 10000
27 | CN(C)C(=O)CN(C(=O)c1ccc(N2CC(F)(F)C2)c(OCC2CC2)n1)C(C)(C)C [Example 27, 6-Cyclopropylmethoxy-5-(3,3-difluoro-azetidin-1-yl)-pyridine-2-carboxylic acid tert-butyl-dimethylcarbamoylmethyl-amide] | 774 | > 10000
